From patent US8642623B2, “Vanilloid receptor ligand compounds, pharmaceutical compositions containing them, a method of producing them and the use thereof to treat pain and various other conditions” (Gruenenthal GmbH, priority 2007, dated 2014)

Key:
Format in all cases: cell-based
[1] = target: vanilloid receptor 1 (VR1/TRPV1 receptor) (Homo sapiens, UniProt Q8NER1); assay: Human VR1/TRPV1 receptor inhibition after pH stimulus; conditions: for inhibition at 5 µM: compound 5 μM; for inhibition at 10 µM: compound 10 μM
Sequence of vanilloid receptor 1 (VR1/TRPV1 receptor) (Q8NER1 whole entry): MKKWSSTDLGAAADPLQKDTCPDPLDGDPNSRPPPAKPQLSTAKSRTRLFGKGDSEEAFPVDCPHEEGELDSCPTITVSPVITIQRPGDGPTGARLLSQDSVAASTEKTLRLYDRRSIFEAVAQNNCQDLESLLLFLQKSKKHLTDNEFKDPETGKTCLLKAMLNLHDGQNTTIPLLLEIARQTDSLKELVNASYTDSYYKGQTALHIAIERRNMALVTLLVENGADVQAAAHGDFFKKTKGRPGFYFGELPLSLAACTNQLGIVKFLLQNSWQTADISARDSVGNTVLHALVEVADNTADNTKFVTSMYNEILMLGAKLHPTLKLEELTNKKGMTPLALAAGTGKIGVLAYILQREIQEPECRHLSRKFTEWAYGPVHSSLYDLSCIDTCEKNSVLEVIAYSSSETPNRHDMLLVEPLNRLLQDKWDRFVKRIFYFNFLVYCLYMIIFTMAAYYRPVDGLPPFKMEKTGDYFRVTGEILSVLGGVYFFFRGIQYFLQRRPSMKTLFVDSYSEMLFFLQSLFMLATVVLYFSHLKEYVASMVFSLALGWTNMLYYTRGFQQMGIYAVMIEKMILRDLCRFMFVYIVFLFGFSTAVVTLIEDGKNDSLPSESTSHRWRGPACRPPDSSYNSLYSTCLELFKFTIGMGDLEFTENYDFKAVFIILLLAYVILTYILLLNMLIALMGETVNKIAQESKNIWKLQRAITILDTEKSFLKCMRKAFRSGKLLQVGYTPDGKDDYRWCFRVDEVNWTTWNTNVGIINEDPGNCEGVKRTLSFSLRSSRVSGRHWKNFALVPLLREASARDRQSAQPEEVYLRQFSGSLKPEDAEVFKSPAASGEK

[2] = target: T1, vanilloid receptor 1 (VR1/TRPV1) of the rat species (Rattus norvegicus, UniProt O35433); assay: FLIPR Ca2+ influx assay on rat dorsal root ganglia cells, capsaicin stimulus (Pharmacological method I); conditions: capsaicin 100 nM stimulus, Ki from IC50 by Cheng-Prusoff
T1 construct: The spinal column is removed from decapitated rats; from tissue; host or cells: primary cells from rat dorsal root ganglia (DRG)
T1 sequence (O35433 whole entry): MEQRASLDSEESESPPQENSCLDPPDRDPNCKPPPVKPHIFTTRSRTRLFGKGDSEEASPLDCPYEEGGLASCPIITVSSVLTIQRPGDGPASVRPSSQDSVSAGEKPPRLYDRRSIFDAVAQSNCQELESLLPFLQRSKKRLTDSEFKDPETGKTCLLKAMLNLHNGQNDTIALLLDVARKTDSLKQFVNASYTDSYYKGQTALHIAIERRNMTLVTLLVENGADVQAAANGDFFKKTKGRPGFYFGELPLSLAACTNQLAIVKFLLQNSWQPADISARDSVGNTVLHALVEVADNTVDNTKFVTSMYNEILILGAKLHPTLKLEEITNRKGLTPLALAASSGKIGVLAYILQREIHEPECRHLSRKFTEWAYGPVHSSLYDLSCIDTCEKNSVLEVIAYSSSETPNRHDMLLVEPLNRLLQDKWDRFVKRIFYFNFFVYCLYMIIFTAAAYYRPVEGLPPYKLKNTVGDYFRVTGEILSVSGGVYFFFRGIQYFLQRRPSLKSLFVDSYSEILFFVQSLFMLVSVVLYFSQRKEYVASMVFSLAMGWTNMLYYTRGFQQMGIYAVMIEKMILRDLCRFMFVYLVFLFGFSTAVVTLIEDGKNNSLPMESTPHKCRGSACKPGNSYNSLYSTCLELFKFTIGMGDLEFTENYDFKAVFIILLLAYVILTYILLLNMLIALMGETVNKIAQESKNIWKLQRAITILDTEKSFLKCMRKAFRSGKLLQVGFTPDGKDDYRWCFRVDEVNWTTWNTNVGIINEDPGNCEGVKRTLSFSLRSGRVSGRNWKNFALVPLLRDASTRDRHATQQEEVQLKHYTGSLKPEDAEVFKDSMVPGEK
Method: (§1) The agonistic or antagonistic action of the substances to be investigated on the vanilloid receptor 1 (VR1/TRPV1) of the rat species may be determined with the following assay. According to this assay, the influx of Ca^2+ through the receptor channel is quantified with the assistance of a Ca^2+-sensitive dye (type Fluo-4, Molecular Probes Europe BV, Leiden, Netherlands) in a Fluorescent Imaging Plate Reader (FLIPR, Molecular Devices, Sunnyvale, USA).
Complete medium: 50 mL HAMS F12 Nutrient Mixture (Gibco Invitrogen GmbH, Karlsruhe, Germany) with 10 vol. % FCS (foetal calf serum, Gibco Invitrogen GmbH, Karlsruhe, Germany, heat-inactivated);
Cell culture plate: poly-D-lysine-coated, black 96-hole plates with clear base (96 well black/clear plate, BD Biosciences, Heidelberg, Germany) are additionally coated with laminin (Gibco Invitrogen GmbH, Karlsruhe, Germany), by diluting laminin to a concentration of 100 μg/mL with PBS (Ca—Mg-free PBS, Gibco Invitrogen GmbH, Karlsruhe, Germany). Aliquots with a concentration of 100 μg/mL of laminin are taken and stored at −20° C. The aliquots are diluted with PBS in the ratio of 1:10 to 10 μg/mL of laminin and 50 μL of the solution is pipetted into each well of the cell culture plate. The cell culture plates are incubated for at least two hours at 37° C., the supernatant solution is aspirated and the wells are each washed twice with PBS. The coated cell culture plates are stored with supernatant PBS and this is only removed directly prior to introduction of the cells.
The spinal column is removed from decapitated rats and this is placed directly in cold HBSS buffer (Hank's buffered saline solution, Gibco Invitrogen GmbH, Karlsruhe, Germany), i.e. located in an ice bath, combined with 1 vol. % (percent by volume) of an AA solution (antibiotic/antimycotic solution, PAA, Pasching, Austria). The spinal column is severed lengthwise and removed from the spinal canal together with fasciae. The dorsal root ganglia (DRGs) are then removed and in turn stored in cold HBSS buffer combined with 1 vol. % of an AA solution. The DRGs, from which blood residues and spinal nerves have been completely removed, are in each case transferred into 500 μL cold collagenase type 2 (PAA, Pasching, Austria) and incubated for 35 minutes at 37° C. After the addition of 2.5 vol. % trypsin (PAA, Pasching, Austria) incubation at 37° C. is continued for a further 10 minutes. After complete incubation, the enzyme solution is carefully pipetted off and the remaining DRGs are combined in each case with 500 μL of complete medium.
The DRGs are in each case repeatedly suspended, drawn through cannulas no. 1, no. 12 and no. 16 by means of a syringe and transferred into 50 mL Falcon microtubes, these being filled to 15 mL with complete medium. The content of each Falcon microtube is in each case filtered through a 70 μm Falcon filter insert and centrifuged for 10 minutes at 1200 revolutions and room temperature. The resultant pellet is in each case redissolved in 250 μL of complete medium and the cell count is determined.
The number of cells in the suspension is adjusted to 3×10^5 per mL and a 150 μL portion of this suspension is in each case placed in a well of the cell culture plates which have been coated as described above. The plates are left to stand in the incubator for two to three days at 37° C., 5 vol. % CO2 and 95% relative atmospheric humidity.
The cells are then loaded with 2 μM Fluo-4 and 0.01 vol. % Pluronic F127 (Molecular Probes Europe BV, Leiden, Netherlands) in HBSS buffer (Hank's buffered saline solution, Gibco Invitrogen GmbH, Karlsruhe, Germany) for 30 min at 37° C., washed 3×with HBSS buffer and, after a further 15 minutes' incubation at room temperature, used for Ca^2+ measurement in the FLIPR assay. Ca^2+-dependent fluorescence is here measured before and after the addition of substances (λex=488 nm, λem=540 nm). […]

vanilloid receptor (VR1) = target: T2, vanilloid receptor (VR1) (Homo sapiens, UniProt Q8NER1); assay: FLIPR Ca2+ influx assay with CHO K1 cells transfected with the human VR1 gene, capsaicin stimulus (Pharmacological method II); conditions: capsaicin 100 nM stimulus, Ki from IC50 by Cheng-Prusoff
T2 construct: expressed in transfected cells; host or cells: CHO K1 cells (ECACC), stably transfected
T2 sequence (Q8NER1 whole entry): as the sequence (Q8NER1 whole entry) above
Method: In addition, compounds according to the invention of the general formulae I, Ia, Ib, I′, I″, I′″ may be preferred which, in a FLIPR assay with CHO K1 cells which have been transfected with the human gene VR1, in a concentration of less than 2000 nM, preferably of less than 1000 nM, particularly preferably of less then 300 nM, very particularly preferably of less than 100 nM, still more preferably of less than 75 nM, further preferably of less than 50 nM, most preferably of less than 10 nM, bring about 50% displacement of capsaicin which is present in a concentration of 100 nM.
In this FLIPR assay, the influx of Ca^2+ is quantified with the assistance of a Ca^2+-sensitive dye (type Fluo-4, Molecular Probes Europe BV, Leiden, Netherlands) in a Fluorescent Imaging Plate Reader (FLIPR, Molecular Devices, Sunnyvale, USA) as described below.
as §1, with “(VR1)” for “1 (VR1/TRPV1) of the rat species”, “may also” for “may”, “the” for “the receptor”
Chinese hamster ovary cells (CHO K1 cells, European Collection of Cell Cultures (ECACC), Great Britain) are stably transfected with the VR1 gene. For functional investigations, these cells are plated out onto poly-D-lysine-coated, black 96-hole plates with a clear base (BD Biosciences, Heidelberg, Germany) at a density of 25,000 cells/hole. The cells are incubated overnight at 37° C. and 5% CO2 in a culture medium (Ham's Nutrient Mixture F12, 10 vol. % FCS (foetal calf serum), 18 μg/mL L-proline). On the following day, the cells are incubated with Fluo-4 (Fluo-4 2 μM, Pluronic F127 0.01 vol. %, Molecular Probes in HBSS (Hank's buffered saline solution), Gibco Invitrogen GmbH, Karlsruhe, Germany) for 30 minutes at 37° C. The plates are then washed 3 times with HBSS buffer and, after a further 15 minutes' incubation at room temperature, used for Ca^2+ measurement in the FLIPR. Ca^2+-dependent fluorescence is here measured before and after the addition of the substances to be investigated (wavelength λex=488 nm, λem=540 nm). Quantification proceeds by measuring the highest fluorescence intensity (FC, fluorescence counts) over time.
The FLIPR protocol consists of 2 additions of substance. The substances to be tested (10 μM) are firstly pipetted onto the cells and Ca^2+ influx is compared with the control (capsaicin 10 μM) (% activation relative to the Ca^2+ signal after addition of 10 μM of capsaicin). After 5 minutes' incubation, 100 nM of capsaicin are added and the influx of Ca^2+ is likewise determined.
The percentage inhibition in comparison with the maximum achievable inhibition with 10 μM capsaicin is calculated.
On the basis of the percentage displacement by different concentrations of the compounds to be tested of the general formula I, IC50 inhibition concentrations which bring about 50% displacement of capsaicin were calculated. Ki values for the test substances were obtained by conversion using the Cheng-Prusoff equation (Cheng, Prusoff; Biochem. Pharmacol. 22, 3099-3108, 1973).

| SMILES | inhibition at 5 µM [1] | inhibition at 10 µM [1] | Ki [2] | Ki (vanilloid receptor (VR1)) | IC50 [1] |
| --- | --- | --- | --- | --- | --- |
| CC1CCN(c2nc(C(F)(F)F)ccc2CNC(=O)C(C)c2ccc(N(C)S(C)(=O)=O)c(F)c2)CC1 (centres unmarked) [Example 3, 2-(3-fluoro-4-(N-methylmethylsulfonamido)phenyl)-N-((2-(4-methylpiperidin-1-yl)-6-(trifluoromethyl)pyridin-3-yl)methyl)propanamide] | 8% | 16% | 20 nM | 55.5 nM |  |
| CCC(=O)N(c1ccccc1)C1CCN(c2nc(C(F)(F)F)ccc2CNC(=O)C(C)c2ccc(N(C(=O)CC)S(C)(=O)=O)c(F)c2)CC1 (centres unmarked) [Example 1, N-(2-fluoro-4-(1-oxo-1-((2-(4-(N-phenylpropionamido)piperidin-1-yl)-6-(trifluoromethyl)pyridin-3-yl)methylamino)propan-2-yl)phenyl)-N-(methylsulfonyl)propionamide] |  |  | 19.5 nM | 69.1 nM | 525 nM |
| CC(C(=O)NCc1ccc(C(F)(F)F)nc1SC1CCCCC1)c1ccc(N(C)S(C)(=O)=O)c(F)c1 (centres unmarked) [Example 7, N-((2-(cyclohexylthio)-6-(trifluoromethyl)pyridin-3-yl)methyl)-2-(3-fluoro-4-(N-methylmethylsulfonamido)phenyl)propanamide] | 0% | 20% | 30.8 nM | 48.1 nM |  |
